Test results taken from article PMC3353862.
pIC50: −log10 of the molar value. In brackets after ≈: the same amount, converted by molar mass.

Legend:
[1] = system: bacterial protein synthesis (aminoacylation/translation system); assay: aminoacylation/translation (A/T) assay; type: biochemical; details: for pIC50: A/T assay, Table 1, read-out: IC50; for fold improvement in the IC50: relative to the original two compounds; for fold reduction of potency/biochemical activity in the A/T assay: relative to 321521
E. faecalis = assay: Broth microdilution MIC testing; type: cell-based, Enterococcus faecalis; details: for MIC: Enterococcus faecalis, read-out: MIC E. fae; for MIC E. fae: E. faecalis
M. catarrhalis = assay: Broth microdilution MIC testing; type: cell-based, Moraxella catarrhalis; details: for MIC: Moraxella catarrhalis
H. influenzae = assay: Broth microdilution MIC testing; type: cell-based, Haemophilus influenzae; details: for MIC: Haemophilus influenzae, read-out: MIC H. flu; for MIC H. flu: H. influenzae
S. pneumoniae = assay: Broth microdilution MIC testing; type: cell-based, Streptococcus pneumoniae; details: for MIC: Streptococcus pneumoniae, read-out: MIC S. pneumo; for MIC S. pneumo: S. pneumoniae
S. aureus = assay: Broth microdilution MIC testing; type: cell-based, Staphylococcus aureus; details: for MIC: Staphylococcus aureus, read-out: MIC S. aureus
E. coli tolC mutants = assay: Broth microdilution MIC testing; type: cell-based, Escherichia coli; details: for MIC: Escherichia coli, read-out: MIC E. coli tolC; for MIC E. coli tolC: E. coli tolC mutants
[2] = system: E. coli modified with PMBN; assay: Broth microdilution MIC testing; type: cell-based, Escherichia coli; details: for MIC: Escherichia coli, read-out: MIC E. coli +PMBP; for MIC E. coli +PMBP: E. coli modified with PMBN
panel of bacteria = assay: Antibacterial activity against the panel of bacteria (MIC, overall); type: cell-based; details: for antibacterial activity: panel of bacteria; for MIC (antibacterial activity grade): Table 2; for MIC (antibacterial activity grade): key: +: poor; ++: moderate; +++: good antibacterial activity

Row | SMILES | pIC50 [1] | MIC (E. faecalis) | MIC (M. catarrhalis) | MIC (H. influenzae) | MIC (S. pneumoniae) | MIC (S. aureus) | MIC (E. coli tolC mutants) | MIC [2] | antibacterial activity (panel of bacteria) | MIC E. fae (E. faecalis) | MIC M. cat (M. catarrhalis) | MIC H. flu (H. influenzae) | MIC S. pneumo (S. pneumoniae) | MIC S. aureus (S. aureus) | MIC E. coli tolC (E. coli tolC mutants) | MIC E. coli +PMBP [2] | fold improvement in the IC50 [1] | MIC (antibacterial activity grade) (panel of bacteria) | biochemical activity in the A/T assay [1] | fold reduction of potency/biochemical activity in the A/T assay [1]
1 | Oc1cccc(CN2CCc3nc(-c4ccccn4)nc(O)c3C2)c1 [Compound 321526] | 5.46 | > 128 µg/mL | 64 µg/mL (≈ 191 µM) | > 128 µg/mL | > 128 µg/mL | > 128 µg/mL | > 128 µg/mL | > 128 µg/mL | little or no anti-bacterial activity |  |  |  |  |  |  |  |  |  |  | 
2 | CCN(CC)Cc1cc(CN2CCc3nc(-c4ccccn4)[nH]c(=O)c3C2)ccc1OC [Compound 323193] | 5.39 |  |  |  |  |  |  |  | all antibacterial activity was lost | > 128 µg/mL | > 128 µg/mL | > 128 µg/mL | > 128 µg/mL | > 128 µg/mL | > 128 µg/mL | > 128 µg/mL |  |  |  | 
3 | COc1cc(CN2CCc3nc(-c4ccccn4)[nH]c(=O)c3C2)ccc1OCC(N)=O [Compound 323200] | 6.40 |  |  |  |  |  |  |  | MIC was above maximum testing concentrations for the entire panel of bacteria | > 128 µg/mL | > 128 µg/mL | > 128 µg/mL | > 128 µg/mL | > 128 µg/mL | > 128 µg/mL | > 128 µg/mL | three to sevenfold |  |  | 
4 | CN(C)Cc1ccc(CN2CCc3nc(-c4ccccn4)[nH]c(=O)c3C2)cc1 [Compound 323201] | 5.68 |  |  |  |  |  |  |  | all antibacterial activity was lost | > 128 µg/mL | > 128 µg/mL | > 128 µg/mL | > 128 µg/mL | > 128 µg/mL | > 128 µg/mL | > 128 µg/mL |  |  |  | 
5 | CN(C)c1ccc(CN2CCc3nc(-c4ccccn4)[nH]c(=O)c3C2)cc1 [Compound 323218] | 6.62 |  |  |  |  |  |  |  |  | > 128 µg/mL | 4 µg/mL (≈ 11.1 µM) | 16 µg/mL (≈ 44.3 µM) | 32 µg/mL (≈ 88.5 µM) | > 128 µg/mL | 128 µg/mL (≈ 354 µM) | 64 µg/mL (≈ 177 µM) | five and tenfold | + |  | 
6 | COc1cc(CN2CCc3nc(-c4ccccn4)[nH]c(=O)c3C2)cc(OC)c1OC [Compound 323221] | < 3.52 |  |  |  |  |  |  |  | abolished both biochemical and microbiological activities | > 128 µg/mL | > 128 µg/mL | > 128 µg/mL | > 128 µg/mL | > 128 µg/mL | > 128 µg/mL | > 128 µg/mL |  |  | abolished both biochemical and microbiological activities | 
7 | O=c1[nH]c(-c2ccccn2)nc2c1CN(Cc1cc(F)ccc1F)CC2 [Compound 323228] | 6.52 |  |  |  |  |  |  |  |  | 64 µg/mL (≈ 181 µM) | 0.5 µg/mL (≈ 1.41 µM) | 4 µg/mL (≈ 11.3 µM) | 8 µg/mL (≈ 22.6 µM) |  | 16 µg/mL (≈ 45.2 µM) | 16 µg/mL (≈ 45.2 µM) |  | ++ |  | 
8 | O=c1[nH]c(-c2ccccn2)nc2c1CN(Cc1cccc(F)c1F)CC2 [Compound 323237] | 5.55 |  |  |  |  |  |  |  |  | 64 µg/mL (≈ 181 µM) | 0.5 µg/mL (≈ 1.41 µM) | 4 µg/mL (≈ 11.3 µM) | 8 µg/mL (≈ 22.6 µM) | 32 µg/mL (≈ 90.3 µM) | 8 µg/mL (≈ 22.6 µM) | 16 µg/mL (≈ 45.2 µM) |  |  |  | 
9 | CC(=O)Oc1ccc(CN2CCc3nc(-c4ccccn4)[nH]c(=O)c3C2)cc1 [Compound 323238] | 5.68 |  |  |  |  |  |  |  |  | > 128 µg/mL | 16 µg/mL (≈ 42.5 µM) | 32 µg/mL (≈ 85 µM) | > 128 µg/mL | > 128 µg/mL | > 128 µg/mL | > 128 µg/mL |  |  |  | 
10 | CCOc1ccc(CN2CCc3nc(-c4ccccn4)[nH]c(=O)c3C2)cc1Cn1ccnc1 [Compound 323239] | 5.52 |  |  |  |  |  |  |  |  | 64 µg/mL (≈ 145 µM) | 8 µg/mL (≈ 18.1 µM) | 64 µg/mL (≈ 145 µM) | > 128 µg/mL | > 128 µg/mL | 64 µg/mL (≈ 145 µM) | 128 µg/mL (≈ 289 µM) |  |  |  | 
11 | O=C(c1ccc(Cl)cc1)N1CCc2nc(-c3ccccn3)[nH]c(=O)c2C1 [Compound 323353] | 5.77 | > 128 µg/mL | 8 µg/mL (≈ 21.8 µM) | 32 µg/mL (≈ 87.2 µM) | 128 µg/mL (≈ 349 µM) | > 128 µg/mL | 128 µg/mL (≈ 349 µM) | 128 µg/mL (≈ 349 µM) |  |  |  |  |  |  |  |  |  |  |  | 
12 | O=c1[nH]c(-c2cnccn2)nc2c1CN(Cc1ccc(Cl)cc1)CC2 [Compound 323354] | 4.67 | > 128 µg/mL | 16 µg/mL (≈ 45.2 µM) | > 128 µg/mL | > 128 µg/mL | > 128 µg/mL | > 128 µg/mL | > 128 µg/mL |  |  |  |  |  |  |  |  |  |  |  | tenfold
13 | Clc1ccc(CN2CCc3nc(-c4ccccn4)ncc3C2)cc1 [Compound 323355] | 4.49 | > 128 µg/mL | 4 µg/mL (≈ 11.9 µM) | 64 µg/mL (≈ 190 µM) | 64 µg/mL (≈ 190 µM) | 128 µg/mL (≈ 380 µM) | 64 µg/mL (≈ 190 µM) | 64 µg/mL (≈ 190 µM) |  |  |  |  |  |  |  |  |  |  |  | 
14 | O=C(Cc1ccc(Cl)cc1)N1CCc2nc(-c3ccccn3)[nH]c(=O)c2C1 [Compound 323369] | 5.70 | 64 µg/mL (≈ 168 µM) | 4 µg/mL (≈ 10.5 µM) | 16 µg/mL (≈ 42 µM) | 64 µg/mL (≈ 168 µM) | 128 µg/mL (≈ 336 µM) | 64 µg/mL (≈ 168 µM) | 32 µg/mL (≈ 84 µM) |  |  |  |  |  |  |  |  |  |  |  | 
15 | Cc1cccc(-c2nc3c(c(=O)[nH]2)CN(Cc2ccc(Cl)cc2)CC3)n1 [Compound 332052] | < 3.52 | > 128 µg/mL | 32 µg/mL (≈ 87.2 µM) | > 64 µg/mL | > 128 µg/mL | > 128 µg/mL | > 128 µg/mL | > 128 µg/mL |  |  |  |  |  |  |  |  |  |  | completely abolished activity | 
16 | O=c1[nH]c(-c2ccco2)nc2c1CN(Cc1ccc(Cl)cc1)CC2 [Compound 332053] | < 3.52 | > 128 µg/mL | > 128 µg/mL | > 64 µg/mL | > 128 µg/mL | > 128 µg/mL | > 128 µg/mL | > 128 µg/mL |  |  |  |  |  |  |  |  |  |  | abolished all biochemical activity | 
17 | O=c1nc(-c2ccccn2)nc2ccn(Cc3ccc(Cl)cc3)cc1-2 [Compound 332055] | 4.79 | 64 µg/mL (≈ 183 µM) | 32 µg/mL (≈ 91.7 µM) | 16 µg/mL (≈ 45.9 µM) | 128 µg/mL (≈ 367 µM) | > 128 µg/mL | 128 µg/mL (≈ 367 µM) | 64 µg/mL (≈ 183 µM) |  |  |  |  |  |  |  |  |  |  |  | 
18 | O=c1[nH]c(-c2cccs2)nc2c1CN(Cc1ccc(Cl)cc1)CC2 [Compound 332057] | 4.00 | > 128 µg/mL | > 128 µg/mL | > 128 µg/mL | > 128 µg/mL | > 128 µg/mL | > 128 µg/mL | > 128 µg/mL |  |  |  |  |  |  |  |  |  |  |  | over 40 fold
